Measured values: US20070173539A1, “Use of malonomicin and analogs in fungicidal applications” (priority 2006, published 2007)
Where two headings read alike, the source gives them in different places.

Experiments:
Format in all cases: in vivo
[1] = system: Venturia inaequalis (VENTIN); test: Apple Scab one day protectant (1DP); details: 0.1 percent Spraymate X77 + 0.1 percent ammonium sulfate
[2] = system: Erysiphe graminis f. sp. tritici (ERYSGT); test: Powdery Mildew of Wheat one day protectant (1DP); details: wheat (Monon), sprayed to runoff, rate 200 ppm
Procedure: Final treatment volumes were obtained by adding 0.1 percent aqueous Ethomeen T25 or 0.1 percent aqueous Spraymate X77+0.1 percent wt./vol. ammonium sulfate^+. Powdery Mildew of Wheat (Erysiphe graminis f. sp. tritici-[…]) Wheat (cultivar Monon) was grown in plastic pots (6.2 cm×8.75 cm) containing 50 percent mineral soil, 50 percent Metro-Mix 360 (W.R Grace and Co.) until the seedlings were 10-20 cm tall. These plants were then sprayed to runoff with the test compound at a rate of 200 ppm. After 24 hours the test plants were inoculated with Erysiphe graminis f. sp. tritici ([…]) by dusting spores from stock plants onto the test plants. The plants were then transferred to the greenhouse until disease developed on the untreated control plants.

[3] = system: Plasmopara viticola (PLASVI); test: Downy Mildew of Grape one day protectant (1DP); details: grape (Carignane), sprayed to runoff, rate 200 ppm
Procedure: Final treatment volumes were obtained by adding 0.1 percent aqueous Ethomeen T25 or 0.1 percent aqueous Spraymate X77+0.1 percent wt./vol. ammonium sulfate^+. Downy Mildew of Grape (Plasmopara viticola-[…]) Vines (cultivar Carignane) were grown from seed in a soilless peat-based potting mixture “Metro-Mix 360” (W.R Grace and Co.) until the seedlings were 10-20 cm tall. These plants were then sprayed to runoff with the test compound at a rate of 200 ppm. After 24 hours the test plants were inoculated by spraying with an aqueous sporangia suspension of Plasmopara viticola ([…]). The plants were then transferred to a dew chamber for 24 hours, then to the greenhouse until disease developed on the untreated control plants.

[4] = system: Colletotricum lagenarium (COLLLA); test: Cucumber Anthracnose one day protectant (1DP); details: cucumber (Bush Champion), sprayed to runoff, rate 200 ppm
Procedure: Compound formulation was accomplished by dissolving Compound I, II, III, IV, V, or VI in water with serial dilutions to obtain desired rates. Final treatment volumes were obtained by adding 0.1 percent aqueous Ethomeen T25 or 0.1 percent aqueous Spraymate X77+0.1 percent wt./vol. ammonium sulfate^+.
Cucumber Anthracnose (Colletotricum lagenarium; COLLLA) (1DP)
Cucumber plants (variety Bush Champion) were grown in plastic pots containing 100 percent Metro-Mix 360 (W.R Grace and Co.) until the first true leaf was 20-80 percent expanded. Each pot contained 1 seedling. These plants were then sprayed to runoff with the test compound at a rate of 200 ppm. After 24 hours, the plants were sprayed with an aqueous spore suspension of Colletotricum lagenarium (COLLLA). The plants were then transferred to a dew chamber for 24 hours, then to a growth chamber until disease developed on the untreated control plants.

Septoria tritici SEPTTR = test: Curative low volume test, wheat leaf blotch; details: curative 3 days, low volume 300 L/ha
Procedure: Tomatoes and grapes were grown in a soil-less peat-based potting mixture (Metro-Mix 360) while wheat was propagated in a 50/50 mix of mineral soil and Metro-Mix 360.
The malonomicin sample (Compound I) used in the low volume foliar spray was prepared by dissolving the material in deionized water with the desired adjuvant concentration. (0.05 percent Spraymate X-77+0.05 percent PVA+0.1 percent ammonium sulfate+0.1 percent EDTA)
For low volume applications, compound was applied to plants at the spray volume of 300 L/ha using a track sprayer with an SS8003E spray nozzle and a spray pressure of 255 kPa with a boom height of 40 cm from test plants. For a control, the same mixture is sprayed without active ingredient (solvent control).
Curative tests (DC) were inoculated the designated day(s) prior to treatment application. Disease severity was assessed as the percentage of the total surface area of the sprayed leaves covered by disease. Percent disease control relative to the solvent control was then calculated. Phytotoxicity symptoms and severity, if present, were also recorded. Four replicate plants per treatment for low volume applications were used.
Wheat plants were inoculated using approximately 1×10^7 spores/mL. Distilled water was poured into inoculum plates and the spores were dislodged using a spatula. The spores and water were filtered through 2 layers of cheesecloth, and three drops of Tween 20 per 100 mL of solution were added as a wetter. Test plants were then placed in a walk-in dew room at 22° C., 99 percent RH for 24 hours, after which time the plants were sub-irrigated with Hoagland's solution for 30 minutes and then moved into a misting greenhouse system where they were lightly misted every 90 seconds for three days. When the three-day misting period was completed, the plants were moved to the dry area of the greenhouse and bottom-watered daily until disease was fully expressed on the solvent control (10-14 days in summer, 14-21 days in winter). During the fall and winter months, the addition of a cart hood was used post-dew room, until assessment, in order to enhance disease uniformity and expression.

[5] = system: Phytophthora infestans PHYTIN; details: curative 1 day, low volume 300 L/ha, tomato
[6] = system: Septoria tritici (SEPTTR); test: Speckled Leaf Blotch of Wheat one day protectant (1DP); details: wheat (Monon), sprayed to runoff, rate 200 ppm
Procedure: Final treatment volumes were obtained by adding 0.1 percent aqueous Ethomeen T25 or 0.1 percent aqueous Spraymate X77+0.1 percent wt./vol. ammonium sulfate^+. Speckled Leaf Blotch of Wheat (Septoria tritici-[…]) Wheat (cultivar Monon) was grown in plastic pots (6.2 cm×8.75 cm) containing 50 percent mineral soil, 50 percent Metro-Mix 360 (W.R Grace and Co.) until the seedlings were 10-20 cm tall. These plants were then sprayed to runoff with the test compound at a rate of 200 ppm. After 24 hours the test plants were inoculated by spraying with an aqueous spore suspension of Septoria tritici ([…]). The plants were then transferred to a dew chamber for 24 hours, then to the greenhouse until disease developed on the untreated control plants.

[7] = system: Puccinia recondita f. sp. tritici PUCCRT; test: Curative low volume test, wheat brown rust; details: low volume 300 L/ha; for PUCCRT 1DC percent disease control: curative 1 day; for PUCCRT 3DC percent disease control: curative 3 days

NC[C@@H]1NC(=O)C(C(=O)CC(NC(=O)[C@@H](N)CO)(C(=O)O)C(=O)O)=C1O [Compound I, {[(2S)-2-amino-3-hydroxypropanoyl]amino}{2-[(5S)-5-(aminomethyl)-4-hydroxy-2-oxo-2,5-dihydro-1H-pyrrol-3-yl]-2-oxoethyl}malonic acid]
VENTIN percent control of plant disease ([1]; 50 ppm): ++ (++ = 75-100 percent control of plant disease)
VENTIN percent control of plant disease ([1]; 100 ppm): ++ (++ = 75-100 percent control of plant disease)
VENTIN percent control of plant disease ([1]; rate 200 ppm): + (+ = 30-74 percent control of plant disease)
ERYSGT percent control of plant disease [2]: − (− = 0-29 percent control of plant disease)
PLASVI percent control of plant disease [3]: ++ (++ = 75-100 percent control of plant disease)
COLLLA percent control of plant disease [4]: − (− = 0-29 percent control of plant disease)
SEPTTR 3DC percent disease control (Septoria tritici SEPTTR; 7.8 g ai/ha): ++ (++ = 75-100 percent control)
SEPTTR 3DC percent disease control (Septoria tritici SEPTTR; 15.6 g ai/ha): ++ (++ = 75-100 percent control)
SEPTTR 3DC percent disease control (Septoria tritici SEPTTR; 31.2 g ai/ha): ++ (++ = 75-100 percent control)
SEPTTR 3DC percent disease control (Septoria tritici SEPTTR; 62.5 g ai/ha): ++ (++ = 75-100 percent control)
SEPTTR 3DC percent disease control (Septoria tritici SEPTTR; 125 g ai/ha): ++ (++ = 75-100 percent control)
SEPTTR 3DC percent disease control (Septoria tritici SEPTTR; 250 g ai/ha): ++ (++ = 75-100 percent control)
PHYTIN 1DC percent disease control ([5]; 7.8 g ai/ha): − (− = 0-29 percent control of plant disease)
PHYTIN 1DC percent disease control ([5]; 15.6 g ai/ha): + (+ = 30-74 percent control of plant disease)
PHYTIN 1DC percent disease control ([5]; 31.2 g ai/ha): + (+ = 30-74 percent control of plant disease)
PHYTIN 1DC percent disease control ([5]; 62.5 g ai/ha): − (− = 0-29 percent control of plant disease)
PHYTIN 1DC percent disease control ([5]; 125 g ai/ha): + (+ = 30-74 percent control of plant disease)
PHYTIN 1DC percent disease control ([5]; 250 g ai/ha): ++ (++ = 75-100 percent control)
SEPTTR percent control of plant disease [6]: ++ (++ = 75-100 percent control of plant disease)
PUCCRT 1DC percent disease control ([7]; 7.8 g ai/ha): − (− = 0-29 percent control of plant disease)
PUCCRT 1DC percent disease control ([7]; 15.6 g ai/ha): − (− = 0-29 percent control of plant disease)
PUCCRT 1DC percent disease control ([7]; 31.2 g ai/ha): + (+ = 30-74 percent control of plant disease)
PUCCRT 1DC percent disease control ([7]; 62.5 g ai/ha): + (+ = 30-74 percent control of plant disease)
PUCCRT 1DC percent disease control ([7]; 125 g ai/ha): ++ (++ = 75-100 percent control)
PUCCRT 1DC percent disease control ([7]; 250 g ai/ha): ++ (++ = 75-100 percent control)
PUCCRT 3DC percent disease control ([7]; 7.8 g ai/ha): − (− = 0-29 percent control of plant disease)
PUCCRT 3DC percent disease control ([7]; 15.6 g ai/ha): + (+ = 30-74 percent control of plant disease)
PUCCRT 3DC percent disease control ([7]; 31.2 g ai/ha): ++ (++ = 75-100 percent control)
PUCCRT 3DC percent disease control ([7]; 62.5 g ai/ha): ++ (++ = 75-100 percent control)
PUCCRT 3DC percent disease control ([7]; 125 g ai/ha): ++ (++ = 75-100 percent control)
PUCCRT 3DC percent disease control ([7]; 250 g ai/ha): ++ (++ = 75-100 percent control)
